In general, melting point refers to the temperature, or range, at which the solid turns liquid.

The values that follow come from US9212348B2, “Method for producing hematopoietic stem cells using pyrazole compounds” (NISSAN CHEMICAL INDUSTRIES, LTD., priority 2010, dated 2015).

The first data set relates to CD34+CD38- cells. The data set can be described thus: Assay Example 3: expansion of CD34+CD38- cells using human cord blood-derived CD34+ cells (Table 22). Format: cell-based. To be noted: based on number of CD34+CD38- cells in absence of compound; 0.01 to 10 μg/mL compound; 100 ng/mL SCF and 20 ng/mL TPO; 7 days. Here is the method:
Human cord blood-derived CD34^+ cells purchased from the same supplier as in Assay Example 1 were plated on a 24-well plate (Corning) (10000 cells/1 mL/well). As the culture medium, StemSpan SFEM (StemCell Technologies) containing 100 ng/mL SCF (Wako Pure Chemical Industries) in terms of final concentration and 20 ng/mL TPO (PeproTech) in terms of final concentration was used, and Compounds Nos. 1-01 to 4-91 dissolved in dimethyl sulfoxide were added in an amount of 0.1% (v/v) to a final concentration of 0.01 to 10 μg/mL. As a negative control, the medium containing 0.1% (v/v) dimethyl sulfoxide was used.
After the cells were incubated in liquid culture at 37° C. for 7 days in a CO2 incubator (5% CO2), the number of viable cells was counted by trypan blue assay. The number of CD34^+CD38^− cells was calculated in the same manner as in Assay Example 1.
For the compound `CCCCCCc1ccc(-c2c(C(C)C)nn(C(C)(C)Cc3ccc(C)cc3)c2O)cc1` [Compound No. 3-07, 4-(4-hexylphenyl)-3-isopropyl-1-(2-methyl-1-p-tolylpropan-2-yl)-1H-pyrazol-5-ol], the Expansion efficiency result is on record as “A (A for expansion efficiencies of 4 or greater)”.

Take `CC(C)C1=NN(C(C)(C)Cc2ccc(Br)cc2)C(=O)C1` [Compound No. 3-12, 1-(1-(4-bromophenyl)-2-methylpropan-2-yl)-3-isopropyl-1H-pyrazol-5(4H)-one]: the Expansion efficiency entry is “B (B for expansion efficiencies of at least 3 and less than 4)”.

Consider `CC(C)(Cc1ccccc1)N1N=C(c2ccccc2)CC1=O` [Compound No. 3-16, 1-(2-methyl-1-phenylpropan-2-yl)-3-phenyl-1H-pyrazol-5(4H)-one], for which the Expansion efficiency entry is “A (A for expansion efficiencies of 4 or greater)”.

In the case of `CC(C)C1=NN(C(C)(C)Cc2ccccc2)C(=O)C1Br` (stereo not shown) [Compound No. 3-47, 4-bromo-3-isopropyl-1-(2-methyl-1-phenylpropan-2-yl)-1H-pyrazol-5(4H)-one], the Expansion efficiency result was “C (C for expansion efficiencies of at least 1.5 and less than 3)”.

As to `COC(=O)CC1=NN(C(C)(C)c2ccccc2)C(=O)C1` [Compound No. 4-01, methyl 2-(5-oxo-1-(2-phenylpropan-2-yl)-4,5-dihydro-1H-pyrazol-3-yl)acetate], the Expansion efficiency result was “C (C for expansion efficiencies of at least 1.5 and less than 3)”.

For the compound `COC(=O)c1ccc(-c2c(C(C)C)nn(C(C)(C)Cc3ccccc3)c2O)cc1` [Compound No. 4-23, methyl 4-(5-hydroxy-3-isopropyl-1-(2-methyl-1-phenylpropan-2-yl)-1H-pyrazol-4-yl)benzoate], the Expansion efficiency entry is given as “A (A for expansion efficiencies of 4 or greater)”. On the same count and under the same terms, the value for `CCCCCCc1ccc(-c2c(C#N)nn(C(C)(C)Cc3ccc(C)cc3)c2O)cc1` [Compound No. 4-86, 4-(4-Hexylphenyl)-5-hydroxy-1-(2-methyl-1-(p-tolyl)propan-2-yl)-1H-pyrazole-3-carbonitrile] was “C (C for expansion efficiencies of at least 1.5 and less than 3)”; that for `CON=C(C)c1c(C(C)C)nn(C(C)(C)Cc2ccccc2)c1O` [Compound No. 4-89, 1-(5-Hydroxy-3-isopropyl-1-(2-methyl-1-phenylpropan-2-yl)-1H-pyrazol-4-yl)ethanone O-methyl oxime] was “C (C for expansion efficiencies of at least 1.5 and less than 3)”.

Tested on in another data set: not given
Assay: not given
Conditions: not given
`CCCCCCc1ccc(-c2c(C#N)nn(C(C)(C)Cc3ccc(C)cc3)c2O)cc1` [Compound No. 4-86, 4-(4-Hexylphenyl)-5-hydroxy-1-(2-methyl-1-(p-tolyl)propan-2-yl)-1H-pyrazole-3-carbonitrile] gave a melting point of 140 to 142 °C.

With `CCCCCCc1ccc(-c2cnn(C(C)(C)Cc3ccc(C)cc3)c2O)cc1` [Compound No. 4-90, 4-(4-Hexylphenyl)-1-(2-methyl-1-(p-tolyl)propan-2-yl)-1H-pyrazol-5-ol], the melting point lay within 149 to 151 °C.
